Results on 35 compounds are retold here after the CombiSolv-Exp solvation set (Vermeire and Green 2021).

A short description of this series: solvent given as SMILES.
The mark [1] stands for this setting: in CCCCCCCCC=CCCCCCCCC(=O)OCC(COC(=O)CCCCCCCC=CCCCCCCCC)OC(=O)CCCCCCCC=CCCCCCCCC

As for `Cc1cccc(C)c1`, the “solvation free energy, 298 K” value was -5.18 kcal/mol (in CC#N); -5.12 kcal/mol (in CC(C)CC(C)(C)C); -4.13 kcal/mol (in CC(O)CO); -5.39 kcal/mol (in CCCCCCC); -5.27 kcal/mol (in CCCCCCCCCCCCCCCC); -5.16 kcal/mol (in CCCCCCCCO). The “solvation free energy, 298 K” value runs as follows: (in CCCCOC(C)=O) -6.06 kcal/mol; (in CNC=O) -4.82 kcal/mol; (in COCCO) -5.09 kcal/mol; (in ClCCCl) -5.98 kcal/mol; (in NC=O) -3.29 kcal/mol; (in NCCO) -3.85 kcal/mol. In addition, the “solvation free energy, 298 K” value reads like this: (in O) -0.78 kcal/mol; (in O=CN1CCOCC1) -5.03 kcal/mol; (in OCCO) -3.42 kcal/mol; (in OCCOCCO) -4.26 kcal/mol; (in OCCOCCOCCO) -4.4 kcal/mol; (in c1ccccc1) -5.99 kcal/mol.
For the compound `CCOC=O`, the “solvation free energy, 298 K” value (in C=CCCCCCCCCCCCCCC) was -2.62 kcal/mol; the “solvation free energy, 298 K” value (in CC(C)O) is -3.15 kcal/mol; the “solvation free energy, 298 K” value (in CCC(C)=O) was -3.71 kcal/mol; the “solvation free energy, 298 K” value (in CCCCCCCCCCCCCCCC) is -2.55 kcal/mol; the “solvation free energy, 298 K” value (in CCCCCCCCO) is -2.98 kcal/mol; the “solvation free energy, 298 K” value (in ClC(Cl)(Cl)Cl) was -3.33 kcal/mol. For the same compound, the “solvation free energy, 298 K” value is, setting by setting: (in ClC(Cl)Cl) -4.37 kcal/mol; (in O) -2.64 kcal/mol; (in [2H]O[2H]) -2.64 kcal/mol.
Regarding `CCCCCc1ccccc1`, the “solvation free energy, 298 K” value (in O) is -0.23 kcal/mol.
For `Cc1[nH]c(=O)n(C(C)(C)C)c(=O)c1Cl`, under “in O”, the “solvation free energy, 298 K” value is -11.1 kcal/mol.
With `CCCCOCC`, the “solvation free energy, 298 K” value is, setting by setting: (in CC(C)CCl) -4.73 kcal/mol; (in CCC(C)Cl) -4.73 kcal/mol; (in CCCCCl) -4.77 kcal/mol; (in ClC(Cl)(Cl)Cl) -4.91 kcal/mol.
Turning to `CCCC(=O)CC(=O)CCC`, the “solvation free energy, 298 K” value (in O) is -4.33 kcal/mol.
On to `Nc1ccc(O)cc1`, for which, under “in C1COCCO1”, the “solvation free energy, 298 K” value is -12.3 kcal/mol.
Consider `C=C(c1ccccc1)c1ccccc1`, for which the “solvation free energy, 298 K” value (in O) was -2.78 kcal/mol.
`CCCCCC(=O)OC`: the “solvation free energy, 298 K” value is, setting by setting: (in CCCCCC) -5.65 kcal/mol; (in CCCCCCC) -5.63 kcal/mol; (in CCCCCCCC) -5.55 kcal/mol; (in CCCCCCCCCC) -5.48 kcal/mol; (in CO) -5.84 kcal/mol; (in O) -2.5 kcal/mol.
In the case of `COP(=S)(OC)SCn1nnc2ccccc2c1=O`, the “solvation free energy, 298 K” value (in O) was -10 kcal/mol.
With `CCCCCCCCCCCCCCCCCCCCCCCCCCCC`, the “solvation free energy, 298 K” value was -18.9 kcal/mol (in CC(=O)N(C)C); -16.9 kcal/mol (in CC(C)(C)O); -17.1 kcal/mol (in CCC(C)=O); -17 kcal/mol (in CCCCCO); -16.7 kcal/mol (in CCCCO); -17.9 kcal/mol (in CCCCOC(C)=O). The “solvation free energy, 298 K” value was -16.4 kcal/mol (in CCCO); -19 kcal/mol (in CN(C)C=O); -19.3 kcal/mol (in Cc1ccc(C)cc1); -19.2 kcal/mol (in Cc1cccc(C)c1); -18.6 kcal/mol (in ClCCl); 5.92 kcal/mol (in O).
As for `O=C(OCc1ccccc1)c1ccccc1C(=O)OCc1ccccc1`, the “solvation free energy, 298 K” value (in O) was -11.3 kcal/mol.
As to `Cc1cc2ccccc2cc1C`, the “solvation free energy, 298 K” value under setting [1] was -8.95 kcal/mol and the “solvation free energy, 298 K” value (in O) was -2.72 kcal/mol.
For `CCCCCCC=O`, the “solvation free energy, 298 K” value (in O) is -2.67 kcal/mol.
Take `O=C(O)C=CC(=O)O`: the “solvation free energy, 298 K” value was -10.2 kcal/mol (in CC(C)=O); -10.8 kcal/mol (in CC(C)O); -10.6 kcal/mol (in CCCO); -10.8 kcal/mol (in CCO); -9.96 kcal/mol (in O); -9.9 kcal/mol (in O=C1CCCCC1).
As to `BrC1CCCCC1`, the “solvation free energy, 298 K” value (in O) was -0.57 kcal/mol.
Turning to `CC(C)C(=O)C(C)C`, the “solvation free energy, 298 K” value (in O) was -2.56 kcal/mol.
On to `c1ccc2c(c1)cc1ccc3cccc4ccc2c1c34`, for which the “solvation free energy, 298 K” value under setting [1] was -16.7 kcal/mol.
On to `Nc1cc([N+](=O)[O-])cc(Cl)c1O`, for which the “solvation free energy, 298 K” value (in O) was -10.2 kcal/mol.
With `Cc1cccnc1`, the “solvation free energy, 298 K” value is -5.83 kcal/mol (in CC(C)(C)O); -4.97 kcal/mol (in CC(C)CC(C)(C)C); -6.41 kcal/mol (in CCCCO); -6.34 kcal/mol (in CCCO); -4.8 kcal/mol (in O).
As for `CCOCCOC(=O)c1ccccc1C(=O)OCCOCC`, the “solvation free energy, 298 K” value (in O) is -13.4 kcal/mol.
`CCCCCCCCCCOC(=O)c1ccccc1C(=O)OCCCCCCCCCC`: the “solvation free energy, 298 K” value (in O) is -6.22 kcal/mol.
Turning to `Cc1ccc(C=O)o1`, the “solvation free energy, 298 K” value is, setting by setting: (in CCCCCCCC) -4.95 kcal/mol; (in CCCCCCCCCC) -5.29 kcal/mol; (in O) -5.5 kcal/mol.
For `CCCCCN(CCCCC)N=O`, where the note is “in CC(C)CC(C)(C)C”, the “solvation free energy, 298 K” value is -9.29 kcal/mol.
`CC(Cl)CCl` (stereo unspecified): the “solvation free energy, 298 K” value was -4.17 kcal/mol (in CCCCCC), -4.03 kcal/mol (in CCCCCCCCO) and -4.65 kcal/mol (in ClC(Cl)(Cl)Cl).
`CCCCCCCCCCC`: the “solvation free energy, 298 K” value (in CCCCCC) is -7.56 kcal/mol; the “solvation free energy, 298 K” value (in CN(C)C=O) was -5.57 kcal/mol; the “solvation free energy, 298 K” value (in COCCO) is -5.15 kcal/mol.
For the compound `c1ccc2c(c1)CCCC2`, the “solvation free energy, 298 K” value reads like this: (in CCC(C)=O) -7.43 kcal/mol; (in CCCCCCC) -7.03 kcal/mol; (in CCO) -6.29 kcal/mol; (in O=Cc1ccco1) -7.02 kcal/mol; (in OCCO) -4.97 kcal/mol; (in OCCOCCO) -5.9 kcal/mol. Also, under “in OCCOCCOCCO”, the “solvation free energy, 298 K” value is -6.07 kcal/mol.
With `COC(C)(C)C`, the “solvation free energy, 298 K” value (in CC(=O)N(C)C) is -3.29 kcal/mol; the “solvation free energy, 298 K” value (in CC(C)(C)O) is -3.81 kcal/mol; the “solvation free energy, 298 K” value (in CC(C)CC(C)(C)C) is -3.58 kcal/mol; the “solvation free energy, 298 K” value (in CC(C)CCl) is -3.89 kcal/mol; the “solvation free energy, 298 K” value (in CCC(C)Cl) is -3.88 kcal/mol; the “solvation free energy, 298 K” value (in CCCCCCC) is -3.54 kcal/mol. Further, the “solvation free energy, 298 K” value is -3.51 kcal/mol (in CCCCCCCC); -3.48 kcal/mol (in CCCCCCCCCC); -3.22 kcal/mol (in CCCCCCCCCCCCCCCC); -3.73 kcal/mol (in CCCCCCCCCCO); -3.52 kcal/mol (in CCCCCCCCO); -3.55 kcal/mol (in CCCCCCO). Besides, the “solvation free energy, 298 K” value reads like this: (in CCCCCl) -3.91 kcal/mol; (in CCCCN(C=O)CCCC) -3.34 kcal/mol; (in CCN1CCCC1=O) -3.21 kcal/mol; (in CCN(CC)C(C)=O) -3.4 kcal/mol; (in CCNC(C)=O) -3.26 kcal/mol; (in CCNC=O) -3.21 kcal/mol. Further, the “solvation free energy, 298 K” value reads like this: (in CN1CCCCC1=O) -3.22 kcal/mol; (in CN(C)C=O) -3.18 kcal/mol; (in CNC(C)=O) -3.12 kcal/mol; (in CNC=O) -3.08 kcal/mol; (in CO) -3.78 kcal/mol; (in COC(=O)OC) -3.52 kcal/mol. The “solvation free energy, 298 K” value is, setting by setting: (in ClC(Cl)(Cl)Cl) -3.94 kcal/mol; (in ClC(Cl)Cl) -4.88 kcal/mol; (in O) -2.02 kcal/mol; (in [2H]O[2H]) -2.15 kcal/mol.
In the case of `CNCc1ccc(C)cc1`, the “solvation free energy, 298 K” value (in O) is -5.95 kcal/mol.
For the compound `Cc1ccc(C(=O)O)cc1C`, the “solvation free energy, 298 K” value runs as follows: (in CN(C)C=O) -11.6 kcal/mol; (in O) -6.55 kcal/mol.
On to `c1ccc2c(c1)oc1ccccc12`, for which the “solvation free energy, 298 K” value by setting is: (in CC(=O)N(C)C) -9.94 kcal/mol; (in CN1CCCC1=O) -10 kcal/mol; (in O) -3.31 kcal/mol.
Consider `CC(C)COC=O`, for which, where the note is “in O”, the “solvation free energy, 298 K” value was -2.22 kcal/mol.
As to `CCC(=O)CC(=O)CC`, the “solvation free energy, 298 K” value (in O) is -4.71 kcal/mol.
As for `CCSC`, under “in O”, the “solvation free energy, 298 K” value is -1.5 kcal/mol.
Same read-out and setting: to `CCCCCCI` belongs 0.08 kcal/mol.
